Data published in patent EP4800015A1, “AZABICYCLO DERIVATIVE AND PREPARATION METHOD THEREFOR, AND USE” (Zhejiang Hisun Pharmaceutical Co., Ltd., priority 2023, dated 2025).

These compounds were tested against T1, recombinant human WRN (Homo sapiens, UniProt Q14191) (assay: Inhibition of WRN enzyme activity (ATPase), ADP-Glo Kinase Assay). Conditions: WRN protein 5 nM, Flap 0.1 nM, ATP 30 µM.
T1 construct: purchased BPS 101264
Format: biochemical
Summary of the method: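 ATPase activity was measured by ADP-Glo luminescence after a 10-min room-temperature reaction with 30 µM ATP and 0.1 nM Flap26 oligonucleotide substrate. The 5 nM WRN had first been exposed to compound (0.004–1000 nM) for 15 min in pH 7.5 Tris buffer with 2 mM MgCl2. IC50 values came from log-concentration regression against the DMSO control.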

T1 sequence (Q14191 whole entry): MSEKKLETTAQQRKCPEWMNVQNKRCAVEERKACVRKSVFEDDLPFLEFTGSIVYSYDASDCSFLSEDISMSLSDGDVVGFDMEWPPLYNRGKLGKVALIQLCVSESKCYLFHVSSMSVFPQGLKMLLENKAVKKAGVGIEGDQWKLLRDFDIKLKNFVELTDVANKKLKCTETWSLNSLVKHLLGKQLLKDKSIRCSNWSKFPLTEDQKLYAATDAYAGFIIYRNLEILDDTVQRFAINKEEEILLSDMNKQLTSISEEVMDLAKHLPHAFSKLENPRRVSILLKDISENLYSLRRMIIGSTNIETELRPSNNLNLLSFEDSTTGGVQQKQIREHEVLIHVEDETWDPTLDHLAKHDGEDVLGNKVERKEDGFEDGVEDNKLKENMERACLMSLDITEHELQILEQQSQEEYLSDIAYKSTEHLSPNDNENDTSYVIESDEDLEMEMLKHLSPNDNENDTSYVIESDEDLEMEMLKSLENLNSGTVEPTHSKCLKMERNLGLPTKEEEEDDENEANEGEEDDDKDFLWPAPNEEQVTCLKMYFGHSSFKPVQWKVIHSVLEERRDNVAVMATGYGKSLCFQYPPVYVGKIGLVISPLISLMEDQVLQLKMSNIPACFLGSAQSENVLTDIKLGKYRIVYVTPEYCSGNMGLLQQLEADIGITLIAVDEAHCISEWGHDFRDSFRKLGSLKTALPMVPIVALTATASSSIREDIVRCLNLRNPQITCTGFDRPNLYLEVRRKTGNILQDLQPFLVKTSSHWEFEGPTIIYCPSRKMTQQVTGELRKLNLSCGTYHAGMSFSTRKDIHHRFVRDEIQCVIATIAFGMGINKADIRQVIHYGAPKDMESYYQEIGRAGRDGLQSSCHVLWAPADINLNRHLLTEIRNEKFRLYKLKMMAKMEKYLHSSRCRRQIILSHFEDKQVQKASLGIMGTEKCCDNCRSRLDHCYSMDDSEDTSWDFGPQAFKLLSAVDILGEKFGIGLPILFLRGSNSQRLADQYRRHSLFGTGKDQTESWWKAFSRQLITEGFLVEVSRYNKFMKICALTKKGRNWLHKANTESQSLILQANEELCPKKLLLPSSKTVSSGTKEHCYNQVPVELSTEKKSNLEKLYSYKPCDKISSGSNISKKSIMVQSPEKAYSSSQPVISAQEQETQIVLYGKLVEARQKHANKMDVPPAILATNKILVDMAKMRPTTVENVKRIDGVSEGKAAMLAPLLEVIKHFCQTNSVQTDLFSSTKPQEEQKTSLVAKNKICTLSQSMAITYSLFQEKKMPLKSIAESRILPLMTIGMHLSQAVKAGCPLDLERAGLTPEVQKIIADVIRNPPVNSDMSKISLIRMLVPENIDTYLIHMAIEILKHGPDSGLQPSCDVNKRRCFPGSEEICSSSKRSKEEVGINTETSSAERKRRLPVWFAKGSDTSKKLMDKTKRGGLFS

Compound	IC50
CCc1c(N2CCN(C(=O)c3ncccc3O)CC2)c(=O)n2nc(C3=CC4COCC4C3)nc2n1CC(=O)Nc1ccc(S(F)(F)(F)(F)F)cc1 (stereo not shown) [Example 187, 2-(5-ethyl-6-(4-(3-hydroxypicolinoyl)piperazin-1-yl)-7-oxo-2-(3,3a,4,6a-tetrahydro-1H-cyclopenta[c]furan-5-yl)-[1,2,4]triazolo[1,5-a]pyrimidin-4(7H)-yl)-N-(4-(pentafluoro-λ^6-sulfaneyl)phenyl) acetamide]	1 to 100 nM

Same assay, conditions: WRN protein 5 nM, Flap 0.1 nM, ATP 30 µM; read-out: IC50

IC50	Compound
1 to 100 nM	CCc1c(N2CCN(C(=O)c3ncnc(C)c3O)CC2)c(=O)n2nc(C3=CC4(CCNCC4)C3)nc2n1CC(=O)Nc1ccc(C(F)(F)F)cc1Cl [Example 143, N-(2-chloro-4-(trifluoromethyl)phenyl)-2-(5-ethyl-6-(4-(5-hydroxy-6-methylpyrimidine-4-carbonyl)piperazin-1-yl)-7-oxo-2-(7-azaspiro[3.5]non-1-en-2-yl)-[1,2,4]triazolo[1,5-a]pyrimidin-4(7H)-yl)acetamide]
1 to 100 nM	CCc1c(N2CCN(C(=O)c3ncnc(C)c3O)CC2)c(=O)n2nc(C3=CC4CN(C)CC4C3)nc2n1CC(=O)Nc1ccc(C(F)(F)F)cc1Cl (stereo not shown) [Example 144, N-(2-chloro-4-(trifluoromethyl)phenyl)-2-(5-ethyl-6-(4-(5-hydroxy-6-methylpyrimidine-4-carbonyl)piperazin-1-yl)-2-(2-methyl-1,2,3,3a,4,6a-hexahydrocyclopenta[c]pyrrol-5-yl)-7-oxo-[1,2,4]triazolo[1,5-a]pyrimidin-4(7H)-yl)acetamide]
1 to 100 nM	CCc1c(N2CCN(C(=O)c3ncnc(C)c3O)CC2)c(=O)n2nc(C3=CC4CN(C(C)=O)CC4C3)nc2n1CC(=O)Nc1ccc(C(F)(F)F)cc1Cl (stereo not shown) [Example 145, 2-(2-(2-Acetyl-1,2,3,3a,4,6a-hexahydrocyclopenta[c]pyrrol-5-yl)-5-ethyl-6-(4-(5-hydroxy-6-methylpyrimidine-4-carbonyl)piperazin-1-yl)-7-oxo-[1,2,4]triazolo[1,5-a]pyrimidin-4(7H)-yl)-N-(2-chloro-4-(trifluoromethyl)phenyl)acetamide]
1 to 100 nM	CCc1c(N2CCN(C(=O)c3ncnc(C)c3O)CC2)c(=O)n2nc(C3=CC4CNCC4C3)nc2n1CC(=O)Nc1ccc(S(F)(F)(F)(F)F)cc1 (stereo not shown) [Example 146, 2-(5-Ethyl-2-(1,2,3,3a,4,6a-hexahydrocyclopenta[c]pyrrol-5-yl)-6-(4-(5-hydroxy-6-methylpyrimidine-4-carbonyl)piperazin-1-yl)-7-oxo-[1,2,4]triazolo[1,5-a]pyrimidin-4(7H)-yl)-N-(4-(pentafluoro-λ^6-sulfaneyl)phenyl)acetamide]
1 to 100 nM	CCc1c(N2CCN(C(=O)c3ncnc(C)c3O)CC2)c(=O)n2nc(-c3ccc4c(c3)CCO4)nc2n1CC(=O)Nc1ccc(SC(F)F)cc1Cl [Example 148, N-(2-chloro-4-((difluoromethyl)thio)phenyl)-2-(2-(2,3-dihydrobenzofuran-5-yl)-5-ethyl-6-(4-(5-hydroxy-6-methylpyrimidine-4-carbonyl)piperazin-1-yl)-7-oxo-[1,2,4]triazolo[1,5-a]pyrimidin-4(7 H)-yl)acetamide]
1 to 100 nM	CCc1c(N2CCN(C(=O)c3ncncc3O)CC2)c(=O)n2nc(C3=CC4COCC4C3)nc2n1CC(=O)Nc1ccc(C(F)(F)F)cc1Cl (stereo not shown) [Example 160, N-(2-chloro-4-(trifluoromethyl)phenyl)-2-(5-ethyl-6-(4-(5-hydroxypyrimidine-4-carbonyl)piperazin-1-yl)-7-oxo-2-(3,3a,4,6a-tetrahydro-1H-cyclopenta[c]furan-5-yl)-[1,2,4]triazolo[1,5-a]pyrimidin-4(7H)-yl)acetamide]
1 to 100 nM	CCc1c(N2CCN(C(=O)c3ncnc(C)c3O)CC2)c(=O)n2nc(C3=CCCCOC3)nc2n1CC(=O)Nc1ccc(SC(F)(F)F)cc1Cl [Example 165, N-(2-chloro-4-((trifluoromethyl)thio)phenyl)-2-(5-ethyl-6-(4-(5-hydroxy-6-methylpyrimidine-4-carbonyl)piperazin-1-yl)-7-oxo-2-(2,5,6,7-tetrahydrooxepin-3-yl)-[1,2,4]triazolo[1,5-a]pyrimidin-4(7H)-yl)acetamide]
1 to 100 nM	[2H]C([2H])([2H])Sc1ccc(NC(=O)Cn2c(CC)c(N3CCN(C(=O)c4ncnc(C)c4O)CC3)c(=O)n3nc(C4=CCCCOC4)nc23)c(Cl)c1 [Example 166, N-(2-chloro-4-((methyl-d3)thio)phenyl)-2-(5-ethyl-6-(4-(5-hydroxy-6-methylpyrimidine-4-carbonyl)piperazin-1-yl)-7-oxo-2-(2,5,6,7-tetrahydrooxepin-3-yl)-[1,2,4]triazolo[1,5-a]pyrimidin-4(7H )-yl)acetamide]
1 to 100 nM	CCc1c(N2CCN(C(=O)c3ncnc(C)c3O)CC2)c(=O)n2nc(-c3ccc4c(c3)CCO4)nc2n1CC(=O)Nc1cc2ccsc2cc1C [Example 168, 2-(2-(2,3-dihydrobenzofuran-5-yl)-5-ethyl-6-(4-(5-hydroxy-6-methylpyrimidine-4-carbonyl)piperazin-1-yl)-7-oxo-[1,2,4]triazolo[1,5-a]pyrimidin-4(7H)-yl)-N-(6-methylbenzo[b]thiophen-5-yl)ac etamide]
1 to 100 nM	CCc1c(N2CCN(C(=O)c3ncnc(C)c3O)CC2)c(=O)n2nc(-c3ccc4nc(N5CCOCC5)sc4c3)nc2n1CC(=O)Nc1ccc(C(F)(F)F)cc1Cl [Example 171, N-(2-chloro-4-(trifluoromethyl)phenyl)-2-(5-ethyl-6-(4-(5-hydroxy-6-methylpyrimidine-4-carbonyl)piperazin-1-yl)-2-(2-morpholinobenzo[d]thiazol-6-yl)-7-oxo-[1,2,4]triazolo[1,5-a]pyrimidin-4(7H)-yl)acetamide]
1 to 100 nM	CCc1c(N2CCN(C(=O)c3ncnc(C)c3O)CC2)c(=O)n2nc(C#CC3CC3)nc2n1CC(=O)Nc1ccc(C(F)(F)F)cc1Cl [Example 173, N-(2-chloro-4-(trifluoromethyl)phenyl)-2-(2-(cyclopropylethynyl)-5-ethyl-6-(4-(5-hydroxy-6-methylpyrimidine-4-carbonyl)piperazin-1-yl)-7-oxo-[1,2,4]triazolo[1,5-a]pyrimidin-4(7H)-yl)acetamide]
1 to 100 nM	CCc1c(N2CCN(C(=O)c3ncnc(C)c3O)CC2)c(=O)n2nc(C3=CC4CC4C3)nc2n1CC(=O)Nc1ccc(SC(F)(F)F)cc1 (stereo not shown) [Example 177, 2-(2-(bicyclo[3.1.0]hex-2-en-3-yl)-5-ethyl-6-(4-(5-hydroxy-6-methylpyrimidine-4-carbonyl)piperazin-1-yl)-7-oxo-[1,2,4]triazolo[1,5-a]pyrimidin-4(7H)-yl)-N-(4-((trifluoromethyl)thio)phenyl)ac etamide]
< 1 nM	CCc1c(N2CCN(C(=O)c3ncnc(C)c3O)CC2)c(=O)n2nc(-c3cc4c(s3)CCN(CC(F)(F)F)C4)nc2n1CC(=O)Nc1ccc(C(F)(F)F)cc1Cl [Example 179, N-(2-chloro-4-(trifluoromethyl)phenyl)-2-(5-ethyl-6-(4-(5-hydroxy-6-methylpyrimidine-4-carbonyl)piperazin-1-yl)-7-oxo-2-(5-(2,2,2-trifluoroethyl)-4,5,6,7-tetrahydrothieno[3,2-c]pyridin-2-yl)-[1,2,4]triazolo[1,5-a]pyrimidin-4(7H)-yl)acetamide]
1 to 100 nM	CCc1c(N2CCN(C(=O)c3ncnc(C)c3O)CC2)c(=O)n2nc(-c3ccc4c(c3)CN(CC(F)(F)F)CCO4)nc2n1CC(=O)Nc1ccc(C(F)(F)F)cc1Cl [Example 180, N-(2-chloro-4-(trifluoromethyl)phenyl)-2-(5-ethyl-6-(4-(5-hydroxy-6-methylpyrimidine-4-carbonyl)piperazin-1-yl)-7-oxo-2-(4-(2,2,2-trifluoroethyl)-2,3,4,5-tetrahydrobenzo[f][1,4]oxazepin-7-yl) -[1,2,4]triazolo[1,5-a]pyrimidin-4(7H)-yl)acetamide]
1 to 100 nM	[2H]C([2H])([2H])Sc1ccc(NC(=O)Cn2c(CC)c(N3CCN(C(=O)c4ncnc(C)c4O)CC3)c(=O)n3nc(C4=CC5CC5C4)nc23)cc1 (stereo not shown) [Example 181, 2-(2-(Bicyclo[3.1.0]hex-2-en-3-yl)-5-ethyl-6-(4-(5-hydroxy-6-methylpyrimidine-4-carbonyl)piperazin-1-yl)-7-oxo-[1,2,4]triazolo[1,5-a]pyrimidin-4(7H)-yl)-N-(4-((methyl-d3)thio)phenyl)acetamide]
1 to 100 nM	CCc1c(N2CCN(C(=O)c3ncnc(C)c3O)CC2)c(=O)n2nc(/C=C/C(=O)N(C)C)nc2n1CC(=O)Nc1ccc(C(F)(F)F)cc1Cl [Example 182, (E)-3-(4-(2-((2-chloro-4-(trifluoromethyl)phenyl)amino)-2-oxoethyl)-5-ethyl-6-(4-(5-hydroxy-6-methylpyrimidine-4-carbonyl)piperazin-1-yl)-7-oxo-4,7-dihydro-[1,2,4]triazolo[1,5-a]pyrimidin-2-yl)-N,N-dimethylacrylamide]
1 to 100 nM	CCc1c(N2CCN(C(=O)c3ncnc(C)c3O)CC2)c(=O)n2nc(C3=CC4COCC4C3)nc2n1CC(=O)Nc1ccc(S(F)(F)(F)(F)F)cc1 (stereo not shown) [Example 189, 2-(5-ethyl-6-(4-(5-hydroxy-6-methylpyrimidine-4-carbonyl)piperazin-1-yl)-7-oxo-2-(3,3a,4,6a-tetrahydro-1H-cyclopenta[c]furan-5-yl)-[1,2,4]triazolo[1,5-a]pyrimidin-4(7H)-yl)-N-(4-(pentafluor o-λ^6-sulfaneyl)phenyl)acetamide]
1 to 100 nM	CCO/C=C/c1nc2n(CC(=O)Nc3ccc(C(F)(F)F)cc3Cl)c(CC)c(N3CCN(C(=O)c4ncnc(C)c4O)CC3)c(=O)n2n1 [Example 193, (E)-N-(2-chloro-4-(trifluoromethyl)phenyl)-2-(2-(2-ethoxyvinyl)-5-ethyl-6-(4-(5-hydroxy-6-methylpyrimidine-4-carbonyl)piperazin-1-yl)-7-oxo-[1,2,4]triazolo[1,5-a]pyrimidin-4(7H)-yl)acetamide]
